These are literature values, as cited in US8759216B2, “Compositions and methods for polishing silicon nitride materials” (Cabot Microelectronics Corporation, priority 2006, dated 2014).

Read-outs that look alike come from different tables or passages of the source.

A word on the pKa: it is the negative logarithm of the acid dissociation constant. Turning to `OP(O)O` [phosphorous, phosphorous acid], the pKa is, setting by setting: (first listed pKa value) 2.00; (second listed pKa value) 6.59.

With `O=C(O)c1ccccc1C(=O)O` [phthalic, phthalic acid], the pKa (first listed pKa value) is on record as 2.89 and the pKa (second listed pKa value) is recorded as 5.51.

Regarding `O=C(O)CCCC(=O)O` [glutaric], the pKa is on record as 4.34 (first listed pKa value) and 5.41 (second listed pKa value).
